Source: ChEMBL document CHEMBL1764978, “Cysteine mapping in conformationally distinct kinase nucleotide binding sites: application to the design of selective covalent inhibitors” (J Med Chem, 2011)

Assays:
[1] = biological target: T1, Mast/stem cell growth factor receptor Kit (Homo sapiens, UniProt P10721); experiment: Inhibition of human wild type KIT assessed as [gamma33P]ATP incorporation into polyGluTyr after 60 mins by microplate scintillation counting
[2] = biological target: Tyrosine-protein kinase Blk (Homo sapiens) (UniProt P51451); experiment: Binding affinity to human BLK serine residue assessed as residual binding at 1 uM by site dependent competitive binding assay
[3] = biological target: T1, Mast/stem cell growth factor receptor Kit; experiment: Binding affinity to human Kit assessed as residual binding at 1 uM by site dependent competitive binding assay
[4] = biological target: Serine/threonine-protein kinase MARK2 (Homo sapiens) (UniProt Q7KZI7); experiment: Binding affinity to human Mark2 isoleucine residue assessed as residual binding at 1 uM by site dependent competitive binding assay
[5] = biological target: Tyrosine-protein kinase Fes/Fps (Homo sapiens) (UniProt P07332); experiment: Binding affinity to human Fes assessed as residual binding at 1 uM by site dependent competitive binding assay
[6] = biological target: Macrophage colony-stimulating factor 1 receptor (Homo sapiens) (UniProt P07333); experiment: Binding affinity to human CSF1R assessed as residual binding at 1 uM by site dependent competitive binding assay
[7] = biological target: Macrophage colony-stimulating factor 1 receptor (Homo sapiens) (UniProt P07333); experiment: Binding affinity to human CSF1R cysteine residue assessed as residual binding at 1 uM by site dependent competitive binding assay
[8] = biological target: Cyclin-dependent kinase-like 1 (Homo sapiens) (UniProt Q00532); experiment: Binding affinity to human CDKL1 assessed as residual binding at 1 uM by site dependent competitive binding assay
[9] = biological target: Fibroblast growth factor receptor 2 (Homo sapiens) (UniProt P21802); experiment: Binding affinity to human Fgfr2 assessed as residual binding at 1 uM by site dependent competitive binding assay
[10] = biological target: Protein-tyrosine kinase 2-beta (Homo sapiens) (UniProt Q14289); experiment: Binding affinity to human Pyk2 assessed as residual binding at 1 uM by site dependent competitive binding assay
[11] = tested on: Mast/stem cell growth factor receptor Kit (Homo sapiens), P10721 [V559D,V654A]; experiment: Binding affinity to human Kit V559D/V654A mutant cysteine residue assessed as residual binding at 1 uM by site dependent competitive binding assay
[12] = biological target: Tyrosine-protein kinase ABL2 (Homo sapiens) (UniProt P42684); experiment: Binding affinity to human ABL2 phenylalanine residue assessed as residual binding at 1 uM by site dependent competitive binding assay
[13] = biological target: Vascular endothelial growth factor receptor 1 (Homo sapiens) (UniProt P17948); experiment: Binding affinity to human Flt1 assessed as residual binding at 1 uM by site dependent competitive binding assay
[14] = biological target: T2, Platelet-derived growth factor receptor alpha (Homo sapiens, UniProt P16234); experiment: Binding affinity to human PDGFRalpha cysteine residue assessed as residual binding at 1 uM by site dependent competitive binding assay
[15] = biological target: Platelet-derived growth factor receptor beta (Homo sapiens) (UniProt P09619); experiment: Binding affinity to human PDGFRbeta assessed as residual binding at 1 uM by site dependent competitive binding assay
[16] = biological target: Fibroblast growth factor receptor 3 (Homo sapiens) (UniProt P22607); experiment: Binding affinity to human Fgfr3 assessed as residual binding at 1 uM by site dependent competitive binding assay
[17] = tested on: Serine/threonine-protein kinase B-raf (Homo sapiens), P15056 [V600E]; experiment: Binding affinity to human BRAF V600E mutant isoleucine residue assessed as residual binding at 1 uM by site dependent competitive binding assay
[18] = biological target: Mitogen-activated protein kinase 10 (Homo sapiens) (UniProt P53779); experiment: Binding affinity to human Jnk3 isoleucine residue assessed as residual binding at 1 uM by site dependent competitive binding assay
[19] = biological target: Fibroblast growth factor receptor 4 (Homo sapiens) (UniProt P22455); experiment: Binding affinity to human Fgfr4 assessed as residual binding at 1 uM by site dependent competitive binding assay
[20] = biological target: Receptor-type tyrosine-protein kinase FLT3 (Homo sapiens) (UniProt P36888); experiment: Binding affinity to human Flt3 assessed as residual binding at 1 uM by site dependent competitive binding assay
[21] = biological target: Epithelial discoidin domain-containing receptor 1 (Homo sapiens) (UniProt Q08345); experiment: Binding affinity to human DDR1 phenylalanine residue assessed as residual binding at 1 uM by site dependent competitive binding assay
[22] = biological target: Tyrosine-protein kinase Fer (Homo sapiens) (UniProt P16591); experiment: Binding affinity to human Fer assessed as residual binding at 1 uM by site dependent competitive binding assay
[23] = biological target: Mitogen-activated protein kinase 8 (Homo sapiens) (UniProt P45983); experiment: Binding affinity to human Jnk1 isoleucine residue assessed as residual binding at 1 uM by site dependent competitive binding assay
[24] = tested on: Mast/stem cell growth factor receptor Kit (Homo sapiens), P10721 [V559D]; experiment: Binding affinity to human Kit V559D mutant cysteine residue assessed as residual binding at 1 uM by site dependent competitive binding assay
[25] = biological target: T2, Platelet-derived growth factor receptor alpha; experiment: Inhibition of human wild type PDGFRalpha assessed as [gamma33P]ATP incorporation into poly-Ala-Glu-Lys-Tyr after 60 mins by microplate scintillation counting
[26] = biological target: Calcium/calmodulin-dependent protein kinase kinase 1 (Homo sapiens) (UniProt Q8N5S9); experiment: Binding affinity to human CAMKK1 isoleucine residue assessed as residual binding at 1 uM by site dependent competitive binding assay
[27] = biological target: Fibroblast growth factor receptor 1 (Homo sapiens) (UniProt P11362); experiment: Binding affinity to human Fgfr1 assessed as residual binding at 1 uM by site dependent competitive binding assay
[28] = biological target: Platelet-derived growth factor receptor beta (Homo sapiens) (UniProt P09619); experiment: Binding affinity to human PDGFRbeta cysteine residue assessed as residual binding at 1 uM by site dependent competitive binding assay
[29] = biological target: Cyclin-G-associated kinase (Homo sapiens) (UniProt O14976); experiment: Binding affinity to human GAK isoleucine residue assessed as residual binding at 1 uM by site dependent competitive binding assay
[30] = biological target: Serine/threonine-protein kinase 17A (Homo sapiens) (UniProt Q9UEE5); experiment: Binding affinity to human DRAK1 valine residue assessed as residual binding at 1 uM by site dependent competitive binding assay
[31] = biological target: Mitogen-activated protein kinase 9 (Homo sapiens) (UniProt P45984); experiment: Binding affinity to human Jnk2 isoleucine residue assessed as residual binding at 1 uM by site dependent competitive binding assay
[32] = biological target: Tyrosine-protein kinase JAK3 (Homo sapiens) (UniProt P52333); experiment: Binding affinity to human Jak3 domain 1 assessed as residual binding at 1 uM by site dependent competitive binding assay
[33] = biological target: T2, Platelet-derived growth factor receptor alpha; experiment: Binding affinity to human PDGFRalpha assessed as residual binding at 1 uM by site dependent competitive binding assay
[34] = biological target: Serine/threonine-protein kinase 3 (Homo sapiens) (UniProt Q13188); experiment: Binding affinity to human Mst2 […] residue assessed as residual binding at 1 uM by site dependent competitive binding assay
[35] = biological target: Vascular endothelial growth factor receptor 3 (Homo sapiens) (UniProt P35916); experiment: Binding affinity to human Flt4 assessed as residual binding at 1 uM by site dependent competitive binding assay
[36] = biological target: Tyrosine-protein kinase Lck (Homo sapiens) (UniProt P06239); experiment: Binding affinity to human LCK tyrosine residue assessed as residual binding at 1 uM by site dependent competitive binding assay
[37] = biological target: Ephrin type-A receptor 8 (Homo sapiens) (UniProt P29322); experiment: Binding affinity to human EPHA8 tyrosine residue assessed as residual binding at 1 uM by site dependent competitive binding assay
[38] = biological target: Tyrosine-protein kinase ABL1 (Homo sapiens, UniProt P00519); experiment: Inhibition of human wild type ABL1 assessed as [gamma33P]ATP incorporation into poly-Ala-Glu-Lys-Tyr after 60 mins by microplate scintillation counting
[39] = biological target: Vascular endothelial growth factor receptor 2 (Homo sapiens) (UniProt P35968); experiment: Binding affinity to human Vegfr2 assessed as residual binding at 1 uM by site dependent competitive binding assay
[40] = biological target: T1, Mast/stem cell growth factor receptor Kit; experiment: Binding affinity to human Kit cysteine residue assessed as residual binding at 1 uM by site dependent competitive binding assay
[41] = biological target: Discoidin domain-containing receptor 2 (Homo sapiens) (UniProt Q16832); experiment: Binding affinity to human DDR2 phenylalanine residue assessed as residual binding at 1 uM by site dependent competitive binding assay
[42] = biological target: Tyrosine-protein kinase Lyn (Homo sapiens) (UniProt P07948); experiment: Binding affinity to human LYN tyrosine residue assessed as residual binding at 1 uM by site dependent competitive binding assay
[43] = biological target: Calcium/calmodulin-dependent protein kinase kinase 2 (Homo sapiens) (UniProt Q96RR4); experiment: Binding affinity to human CAMKK2 isoleucine residue assessed as residual binding at 1 uM by site dependent competitive binding assay
[44] = biological target: Fibroblast growth factor receptor 4 (Homo sapiens) (UniProt P22455); experiment: Binding affinity to human Fgfr4 assessed as residual binding at 10 uM by site dependent competitive binding assay
[45] = biological target: Fibroblast growth factor receptor 3 (Homo sapiens) (UniProt P22607); experiment: Binding affinity to human Fgfr3 assessed as residual binding at 10 uM by site dependent competitive binding assay
[46] = biological target: Serine/threonine-protein kinase MARK2 (Homo sapiens) (UniProt Q7KZI7); experiment: Binding affinity to human Mark2 isoleucine residue assessed as residual binding at 10 uM by site dependent competitive binding assay
[47] = biological target: Serine/threonine-protein kinase 17A (Homo sapiens) (UniProt Q9UEE5); experiment: Binding affinity to human DRAK1 valine residue assessed as residual binding at 10 uM by site dependent competitive binding assay
[48] = biological target: Tyrosine-protein kinase Fer (Homo sapiens) (UniProt P16591); experiment: Binding affinity to human Fer assessed as residual binding at 10 uM by site dependent competitive binding assay
[49] = biological target: Ephrin type-A receptor 8 (Homo sapiens) (UniProt P29322); experiment: Binding affinity to human EPHA8 tyrosine residue assessed as residual binding at 10 uM by site dependent competitive binding assay
[50] = biological target: Cyclin-G-associated kinase (Homo sapiens) (UniProt O14976); experiment: Binding affinity to human GAK isoleucine residue assessed as residual binding at 10 uM by site dependent competitive binding assay
[51] = biological target: Vascular endothelial growth factor receptor 1 (Homo sapiens) (UniProt P17948); experiment: Binding affinity to human Flt1 assessed as residual binding at 10 uM by site dependent competitive binding assay
[52] = biological target: Tyrosine-protein kinase Blk (Homo sapiens) (UniProt P51451); experiment: Binding affinity to human BLK serine residue assessed as residual binding at 10 uM by site dependent competitive binding assay
[53] = biological target: Vascular endothelial growth factor receptor 3 (Homo sapiens) (UniProt P35916); experiment: Binding affinity to human Flt4 assessed as residual binding at 10 uM by site dependent competitive binding assay

Chain of Tyrosine-protein kinase ABL1 (P00519 whole entry): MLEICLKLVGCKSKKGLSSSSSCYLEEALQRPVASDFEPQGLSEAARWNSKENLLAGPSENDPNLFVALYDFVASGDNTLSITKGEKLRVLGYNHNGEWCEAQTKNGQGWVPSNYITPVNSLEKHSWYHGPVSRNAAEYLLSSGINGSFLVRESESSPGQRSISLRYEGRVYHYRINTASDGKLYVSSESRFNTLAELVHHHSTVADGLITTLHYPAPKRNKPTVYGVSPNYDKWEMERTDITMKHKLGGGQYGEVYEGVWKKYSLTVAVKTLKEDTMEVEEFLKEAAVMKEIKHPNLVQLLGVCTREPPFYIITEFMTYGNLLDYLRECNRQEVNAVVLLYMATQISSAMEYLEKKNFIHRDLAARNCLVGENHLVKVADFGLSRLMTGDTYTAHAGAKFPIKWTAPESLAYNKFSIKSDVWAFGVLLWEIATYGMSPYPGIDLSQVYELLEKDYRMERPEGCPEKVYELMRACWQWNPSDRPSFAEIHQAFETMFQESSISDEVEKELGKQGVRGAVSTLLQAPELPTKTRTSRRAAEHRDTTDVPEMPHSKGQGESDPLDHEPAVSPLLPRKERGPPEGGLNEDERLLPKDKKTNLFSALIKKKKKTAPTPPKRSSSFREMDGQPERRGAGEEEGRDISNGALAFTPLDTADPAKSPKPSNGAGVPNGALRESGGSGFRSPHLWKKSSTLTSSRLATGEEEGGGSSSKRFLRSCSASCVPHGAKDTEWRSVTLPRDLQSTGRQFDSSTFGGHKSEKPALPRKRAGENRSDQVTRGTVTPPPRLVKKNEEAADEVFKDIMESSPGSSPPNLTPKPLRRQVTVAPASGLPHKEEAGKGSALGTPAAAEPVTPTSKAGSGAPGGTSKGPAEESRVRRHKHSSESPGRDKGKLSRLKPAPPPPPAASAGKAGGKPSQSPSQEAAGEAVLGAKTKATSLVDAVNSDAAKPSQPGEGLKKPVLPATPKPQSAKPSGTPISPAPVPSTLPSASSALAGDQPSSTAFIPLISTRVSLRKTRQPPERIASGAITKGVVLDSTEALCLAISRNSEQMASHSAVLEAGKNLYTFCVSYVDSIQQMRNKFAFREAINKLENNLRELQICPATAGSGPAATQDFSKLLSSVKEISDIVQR
T2 sequence (P16234 whole entry): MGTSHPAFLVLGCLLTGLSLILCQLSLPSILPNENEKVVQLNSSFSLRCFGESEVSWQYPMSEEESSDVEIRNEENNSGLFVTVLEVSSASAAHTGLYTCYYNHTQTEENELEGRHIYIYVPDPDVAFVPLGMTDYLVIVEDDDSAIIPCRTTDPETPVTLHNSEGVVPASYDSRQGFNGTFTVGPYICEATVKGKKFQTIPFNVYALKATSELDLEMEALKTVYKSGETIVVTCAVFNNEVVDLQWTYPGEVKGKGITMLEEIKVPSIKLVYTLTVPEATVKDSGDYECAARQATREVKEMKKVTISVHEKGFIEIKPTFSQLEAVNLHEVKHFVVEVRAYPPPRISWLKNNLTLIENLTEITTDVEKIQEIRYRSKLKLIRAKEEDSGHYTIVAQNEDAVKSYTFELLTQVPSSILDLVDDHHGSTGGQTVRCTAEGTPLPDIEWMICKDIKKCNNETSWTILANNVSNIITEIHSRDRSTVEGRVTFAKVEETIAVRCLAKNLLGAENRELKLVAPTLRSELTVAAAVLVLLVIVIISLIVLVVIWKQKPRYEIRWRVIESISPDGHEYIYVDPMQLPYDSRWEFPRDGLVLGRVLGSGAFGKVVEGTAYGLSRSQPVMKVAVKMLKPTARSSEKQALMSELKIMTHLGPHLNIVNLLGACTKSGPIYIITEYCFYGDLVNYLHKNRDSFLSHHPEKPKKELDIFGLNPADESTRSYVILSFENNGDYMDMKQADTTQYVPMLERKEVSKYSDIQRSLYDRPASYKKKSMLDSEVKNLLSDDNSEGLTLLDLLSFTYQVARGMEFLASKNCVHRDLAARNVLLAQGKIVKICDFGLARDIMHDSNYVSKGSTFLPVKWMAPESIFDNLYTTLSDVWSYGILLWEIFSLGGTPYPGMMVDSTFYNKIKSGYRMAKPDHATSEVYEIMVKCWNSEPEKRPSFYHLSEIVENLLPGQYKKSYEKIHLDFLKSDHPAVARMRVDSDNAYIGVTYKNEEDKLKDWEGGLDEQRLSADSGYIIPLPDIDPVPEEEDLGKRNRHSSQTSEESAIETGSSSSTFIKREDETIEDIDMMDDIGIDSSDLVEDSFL
T1 sequence (P10721 whole entry): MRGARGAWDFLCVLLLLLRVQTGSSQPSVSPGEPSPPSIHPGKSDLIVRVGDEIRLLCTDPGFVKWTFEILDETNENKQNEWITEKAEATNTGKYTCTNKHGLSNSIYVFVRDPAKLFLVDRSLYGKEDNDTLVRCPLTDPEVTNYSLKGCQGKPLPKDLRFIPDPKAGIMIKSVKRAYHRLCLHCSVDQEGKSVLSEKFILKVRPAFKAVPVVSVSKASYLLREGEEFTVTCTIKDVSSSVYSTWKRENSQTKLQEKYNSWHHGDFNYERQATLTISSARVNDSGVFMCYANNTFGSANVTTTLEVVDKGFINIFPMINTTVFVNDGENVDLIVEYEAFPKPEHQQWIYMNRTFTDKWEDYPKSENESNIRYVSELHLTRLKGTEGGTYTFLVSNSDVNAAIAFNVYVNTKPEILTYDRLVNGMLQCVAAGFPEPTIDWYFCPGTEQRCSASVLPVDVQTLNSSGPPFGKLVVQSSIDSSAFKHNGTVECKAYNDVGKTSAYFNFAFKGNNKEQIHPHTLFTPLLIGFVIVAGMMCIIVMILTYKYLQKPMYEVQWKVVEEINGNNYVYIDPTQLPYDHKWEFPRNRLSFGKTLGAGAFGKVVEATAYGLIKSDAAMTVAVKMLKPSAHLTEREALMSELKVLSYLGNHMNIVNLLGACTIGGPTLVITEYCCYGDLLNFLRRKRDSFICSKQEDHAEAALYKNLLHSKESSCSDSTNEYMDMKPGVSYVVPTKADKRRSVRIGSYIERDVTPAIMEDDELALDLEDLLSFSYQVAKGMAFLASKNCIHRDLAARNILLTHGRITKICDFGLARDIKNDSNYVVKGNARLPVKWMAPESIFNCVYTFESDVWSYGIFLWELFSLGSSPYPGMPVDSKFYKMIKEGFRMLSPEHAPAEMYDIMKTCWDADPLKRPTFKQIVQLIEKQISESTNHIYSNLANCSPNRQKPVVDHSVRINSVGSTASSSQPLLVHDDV
Chain of Tyrosine-protein kinase Fer (Homo sapiens) (P16591 whole entry, looked up): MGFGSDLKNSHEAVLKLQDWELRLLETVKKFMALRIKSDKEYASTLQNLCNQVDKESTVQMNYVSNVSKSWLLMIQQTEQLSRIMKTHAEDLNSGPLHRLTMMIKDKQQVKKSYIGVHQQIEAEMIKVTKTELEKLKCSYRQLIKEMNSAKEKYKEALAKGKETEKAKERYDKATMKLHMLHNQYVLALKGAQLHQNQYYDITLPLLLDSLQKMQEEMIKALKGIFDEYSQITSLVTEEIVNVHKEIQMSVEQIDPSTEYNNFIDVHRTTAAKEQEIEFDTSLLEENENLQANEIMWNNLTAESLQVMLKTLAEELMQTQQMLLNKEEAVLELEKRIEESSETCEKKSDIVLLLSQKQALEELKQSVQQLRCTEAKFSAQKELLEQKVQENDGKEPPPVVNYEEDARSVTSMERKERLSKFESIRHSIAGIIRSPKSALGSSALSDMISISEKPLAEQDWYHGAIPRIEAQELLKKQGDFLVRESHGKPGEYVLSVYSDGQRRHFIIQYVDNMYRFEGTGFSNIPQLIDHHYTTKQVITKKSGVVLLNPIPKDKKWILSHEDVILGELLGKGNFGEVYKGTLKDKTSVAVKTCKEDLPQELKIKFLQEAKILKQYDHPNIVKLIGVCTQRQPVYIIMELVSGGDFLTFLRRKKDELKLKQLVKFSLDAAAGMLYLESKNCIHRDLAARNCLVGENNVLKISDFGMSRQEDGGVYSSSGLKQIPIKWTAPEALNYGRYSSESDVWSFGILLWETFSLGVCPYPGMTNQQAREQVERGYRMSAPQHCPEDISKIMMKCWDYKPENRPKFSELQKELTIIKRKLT
Chain of Tyrosine-protein kinase Blk (Homo sapiens) (P51451 2-505 limits assumed): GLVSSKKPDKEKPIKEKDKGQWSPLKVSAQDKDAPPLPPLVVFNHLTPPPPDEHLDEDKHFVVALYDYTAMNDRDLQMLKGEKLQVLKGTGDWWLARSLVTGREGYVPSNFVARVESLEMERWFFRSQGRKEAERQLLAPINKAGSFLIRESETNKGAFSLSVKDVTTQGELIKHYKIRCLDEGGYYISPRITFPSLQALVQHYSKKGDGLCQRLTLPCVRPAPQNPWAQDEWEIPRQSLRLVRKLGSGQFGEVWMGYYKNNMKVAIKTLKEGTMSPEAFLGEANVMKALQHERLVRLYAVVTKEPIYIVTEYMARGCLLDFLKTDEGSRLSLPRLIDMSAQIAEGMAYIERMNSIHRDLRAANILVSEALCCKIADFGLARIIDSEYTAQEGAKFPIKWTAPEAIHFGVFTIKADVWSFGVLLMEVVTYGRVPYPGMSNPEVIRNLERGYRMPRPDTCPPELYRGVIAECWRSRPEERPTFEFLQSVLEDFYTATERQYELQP
Chain of Serine/threonine-protein kinase 17A (Homo sapiens) (Q9UEE5 whole entry): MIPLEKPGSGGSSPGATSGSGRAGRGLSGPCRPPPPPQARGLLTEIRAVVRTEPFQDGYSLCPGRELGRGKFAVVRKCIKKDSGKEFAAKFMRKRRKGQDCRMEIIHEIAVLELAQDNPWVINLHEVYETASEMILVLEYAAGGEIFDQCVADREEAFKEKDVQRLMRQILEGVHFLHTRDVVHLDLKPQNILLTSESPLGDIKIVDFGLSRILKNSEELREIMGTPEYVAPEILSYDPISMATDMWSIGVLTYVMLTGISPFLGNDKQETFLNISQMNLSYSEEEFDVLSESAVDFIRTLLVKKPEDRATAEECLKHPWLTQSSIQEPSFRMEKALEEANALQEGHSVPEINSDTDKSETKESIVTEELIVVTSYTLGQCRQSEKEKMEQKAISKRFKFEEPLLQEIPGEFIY
Chain of Mast/stem cell growth factor receptor Kit (Homo sapiens), P10721 [V559D,V654A] (P10721 whole entry V559D/V654A): as the sequence (P10721 whole entry) above, with V559D, V654A counted along it
Chain of Mast/stem cell growth factor receptor Kit (Homo sapiens), P10721 [V559D] (P10721 whole entry V559D): as the sequence (P10721 whole entry) above, with V559D counted along it

Cc1ccc(NC(=O)c2ccc(CCl)cc2)cc1Nc1nccc(-c2cccnc2)n1
IC50 [1]: 245 nM

Cc1ccc(NC(=O)c2ccc(CNC(=O)CCl)cc2)cc1Nc1nccc(-c2cccnc2)n1
Activity [2]: 69%
Activity [3]: 0%
Activity [4]: 100%
Activity [5]: 100%
Activity [6]: 5%
Activity [7]: 5%
Activity [8]: 100%
Activity [9]: 92%
Activity [10]: 68%
Activity [11]: 7%
Activity [12]: 49%
Activity [13]: 86%
Activity [14]: 0.7%
Activity [15]: 0%
Activity [16]: 100%
Activity [17]: 4.6%
IC50 [1]: 788 nM
Activity [18]: 1.9%
Activity [19]: 100%
Activity [20]: 81%
Activity [21]: 0.5%
Activity [22]: 95%
Activity [23]: 0.45%
Activity [24]: 0%
IC50 [25]: 1080 nM
Activity [26]: 100%
Activity [27]: 100%
Activity [28]: 0%
Activity [29]: 18%
Activity [30]: 100%
Activity [31]: 4.6%
Activity [32]: 100%
Activity [33]: 0.7%
Activity [34]: 100%
Activity [35]: 100%
Activity [36]: 64%
Activity [37]: 100%
IC50 [38]: > 20000 nM
Activity [39]: 64%
Activity [40]: 0%
Activity [41]: 31%
Activity [42]: 76%
Activity [43]: 100%

C=C(C)C(=O)NCc1ccc(C(=O)Nc2ccc(C)c(Nc3nccc(-c4cccnc4)n3)c2)cc1
IC50 [1]: 2740 nM
IC50 [38]: > 20000 nM

C/C=C/C(=O)NCc1ccc(C(=O)Nc2ccc(C)c(Nc3nccc(-c4cccnc4)n3)c2)cc1
IC50 [1]: 4710 nM
IC50 [38]: > 20000 nM

Cc1ccc(NC(=O)c2ccc(CN)cc2)cc1Nc1nccc(-c2cccnc2)n1
IC50 [1]: 788 nM
IC50 [38]: > 20000 nM

Cc1ccc(NC(=O)c2ccc(CN3CCN(C)CC3)cc2)cc1Nc1nccc(-c2cccnc2)n1
Activity [44]: 99%
Activity [45]: 97%
Activity [46]: 8.8%
Activity [47]: 5.2%
Activity [48]: 91%
Activity [49]: 7.2%
Activity [50]: 5.1%
Activity [51]: 78%
Activity [52]: 0.8%
Activity [53]: 85%
